How the values were obtained:
Assay in all cases: MTT assay panel
Assay type in all cases: cell-based
PATU-8988S = PATU-8988S cells, 72 hours
Protocol: (§1) Compound 124 was further tested against a panel of selected solid and hematological cancer cell lines and selected normal cell lines in an MTT assay. Briefly, the various cell lines above were plated at different densities on day 1. […] Cell Titer AQueous One was added to each well, and the plates were read in a plate reader at OD 495.

HTB-38 = HTB-38 cells, 72 hours
Protocol: as §1

SW-837 = conditions: Homo sapiens, SW837; SW-837 cells, 72 hours
Protocol: as §1

HCC-4006 = conditions: Homo sapiens, HCC4006; HCC-4006 cells, 72 hours
Protocol: as §1

NCI-H1993 = conditions: Homo sapiens; NCI-H1993 cells, 72 hours
Protocol: as §1

TF-1 = conditions: Homo sapiens; TF-1 cells, 72 hours
Protocol: as §1

PATU-8988T = conditions: Homo sapiens; PATU-8988T cells, 72 hours
Protocol: as §1

C6 = conditions: Rattus norvegicus; C6 cells, 72 hours
Protocol: as §1

KG-1 = conditions: Homo sapiens; KG-1 cells, 72 hours
Protocol: as §1

SKOV3 = conditions: Homo sapiens, SK-OV-3; SKOV3 cells, 72 hours
Protocol: as §1

LS-180 = conditions: Homo sapiens, LS180; LS-180 cells, 72 hours
Protocol: as §1

HEP3B = conditions: Homo sapiens; HEP3B cells, 72 hours
Protocol: as §1

THP1 = conditions: Homo sapiens, THP-1; THP1 cells, 72 hours
Protocol: as §1

NCI-H187 = conditions: Homo sapiens; NCI-H187 cells, 72 hours
Protocol: as §1

NCI-H508 = conditions: Homo sapiens; NCI-H508 cells, 72 hours
Protocol: as §1

IMR-90 = conditions: Homo sapiens; IMR-90 cells, 72 hours
Protocol: as §1

LoVo = conditions: Homo sapiens; LoVo cells, 72 hours
Protocol: as §1

MCF7 = conditions: Homo sapiens; MCF7 cells, 72 hours
Protocol: as §1

NCI-H2122 = conditions: Homo sapiens; NCI-H2122 cells, 72 hours
Protocol: as §1

Pfieffer = Pfieffer cells, 72 hours
Protocol: as §1

CAPAN-1 = conditions: Homo sapiens; CAPAN-1 cells, 72 hours
Protocol: as §1

DB = conditions: Homo sapiens; DB cells, 72 hours
Protocol: as §1

HPAF-II = conditions: Homo sapiens; HPAF-II cells, 72 hours
Protocol: as §1

NCI-H1563 = conditions: Homo sapiens; NCI-H1563 cells, 72 hours
Protocol: as §1

ANBL-6 = conditions: Homo sapiens; ANBL-6 cells, 72 hours
Protocol: as §1

HCT-15 = conditions: Homo sapiens; HCT-15 cells, 72 hours
Protocol: as §1

3T3 = conditions: Mus musculus, NIH3T3; 3T3 cells, 72 hours
Protocol: as §1

HeLa = conditions: Homo sapiens; HeLa cells, 72 hours
Protocol: as §1

NCI-H1650 = conditions: Homo sapiens; NCI-H1650 cells, 72 hours
Protocol: as §1

MM1R = conditions: MM.1R; MM1R cells, 72 hours
Protocol: as §1

HPAC = conditions: Homo sapiens; HPAC cells, 72 hours
Protocol: as §1

MDA-MB-231 = conditions: Homo sapiens; MDA-MB-231 cells, 72 hours
Protocol: as §1

SW-480 = conditions: Homo sapiens, SW480; SW-480 cells, 72 hours
Protocol: as §1

MDA-MB-361 = conditions: Homo sapiens; MDA-MB-361 cells, 72 hours
Protocol: as §1

NCI-H1299 = conditions: Homo sapiens; NCI-H1299 cells, 72 hours
Protocol: as §1

SHSY5Y = conditions: Homo sapiens, SH-SY5Y; SHSY5Y cells, 72 hours
Protocol: as §1

NCI-H226 = conditions: Homo sapiens; NCI-H226 cells, 72 hours
Protocol: as §1

RL = conditions: Homo sapiens; RL cells, 72 hours
Protocol: as §1

SK-CO-1 = conditions: Homo sapiens; SK-CO-1 cells, 72 hours
Protocol: as §1

LN18 = conditions: Homo sapiens, LN-18; LN18 cells, 72 hours
Protocol: as §1

Q: What does the source list for `NC(=O)/C(=C/n1cnc(-c2cc(C(F)(F)F)cc(C(F)(F)F)c2)n1)c1cncnc1` [Compound 124, (E)-3-(3-(3,5-bis(trifluoromethyl)phenyl)-1H-1,2,4-triazol-1-yl)-2-(pyrimidin-5-yl)acrylamide]?
A: IC50 (PATU-8988S): 10000 nM; IC50 (HTB-38): > 10000 nM; IC50 (SW-837): 500 nM; IC50 (HCC-4006): 20 nM; IC50 (NCI-H1993): > 10000 nM; IC50 (TF-1): 110 nM; IC50 (PATU-8988T): 7170 nM; IC50 (C6): 150 nM; IC50 (KG-1): 90 nM; IC50 (SKOV3): > 10000 nM; IC50 (LS-180): > 10000 nM; IC50 (HEP3B): 300 nM; IC50 (THP1): 3380 nM; IC50 (NCI-H187): 530 nM; IC50 (NCI-H508): 860 nM; IC50 (IMR-90): > 10000 nM; IC50 (LoVo): 680 nM; IC50 (MCF7): 680 nM; IC50 (NCI-H2122): 840 nM; IC50 (Pfieffer): 140 nM; IC50 (CAPAN-1): 20 nM; IC50 (DB): 60 nM; IC50 (HPAF-II): > 10000 nM; IC50 (NCI-H1563): 7820 nM; IC50 (ANBL-6): 220 nM; IC50 (HCT-15): 460 nM; IC50 (3T3): 1100 nM; IC50 (HeLa): 1050 nM; IC50 (NCI-H1650): > 10000 nM; IC50 (MM1R): 8 nM; IC50 (HPAC): 10000 nM; IC50 (MDA-MB-231): 120 nM; IC50 (SW-480): 10000 nM; IC50 (MDA-MB-361): > 10000 nM; IC50 (NCI-H1299): 50 nM; IC50 (SHSY5Y): 50 nM; IC50 (NCI-H226): 30 nM; IC50 (RL): 20 nM; IC50 (SK-CO-1): 430 nM; IC50 (LN18): 2060 nM

Source: patent US11945794B2, “Nuclear transport modulators and uses thereof” (Karyopharm Therapeutics Inc., priority 2013, dated 2024)
